Measurements as given in US10092648B2, “Selective glucagon-like-peptide-2 (GLP-2) analogues” (Zealand Pharma A/S, priority 2006, dated 2018).
Where two headings read alike, the source gives them in different places.

Tests used:
male C57BL mice [1] = assay: In vivo stimulation of intestinal growth, 800 nmol/kg (Example 10); parameters: key to Small intestine-colon sensitivity index: (SI/Colon) of compound divided by (SI/Colon) of reference GLP-2; details: 800 nmol/kg s.c. once daily for 3 days; for Small intestine-colon sensitivity index: (SI/Colon)x/(SI/Colon)[Gly2]GLP-2; for Sensitivity index Si/Colon / Sensitivity index Stomach/Co: relative to 1559; for Colon: colon mass relative to BW, % vs. [Gly2]GLP-2; for SI (% vs. [Gly2]GLP-2: small intestine mass relative to BW, [Gly2]GLP-2 = 100%
Source text: Individual groups (n=6-10) of mice were given 800 nmol/kg of each compound, s.c, once daily for three consecutive days. For comparison purposes other groups of animals were given either an equimolar dose of [[…]]GLP-2 (ZP1559) or vehicle (phosphate buffered saline, pH 7.4) in the same dosing regimen Twenty-four hours after the last dose of compound had been given the mice were sacrificed and the small intestine (from the pylorus to the cecum) and the colon (intestine distal to cecum) was emptied and weighed. To correct for slight difference in body weight (BW), the organ mass of the small intestine (SI) and colon were expressed relative to BW. The non-selective reference compound [[…]]GLP-2 has been reported to stimulate gastrointestinal growth in both esophagus, stomach, small intestine and colon and to evaluate differences in growth pattern induced by compounds, the small intestine-colon sensitivity index of compound X was calculated as: […]

hGLP-2 receptor = target: T1, hGLP-2 receptor (Homo sapiens, UniProt O95838); assay: In vitro screening for agonism on the GLP-2 receptor recombinantly expressed in BHK-21 cells (CRE-luciferase reporter); format: cell-based
T1 construct: expressed in transfected cells; host or cells: BHK-21 (C13) cells, transient transfection with Lipofectamine 2000
T1 sequence (O95838 1-553): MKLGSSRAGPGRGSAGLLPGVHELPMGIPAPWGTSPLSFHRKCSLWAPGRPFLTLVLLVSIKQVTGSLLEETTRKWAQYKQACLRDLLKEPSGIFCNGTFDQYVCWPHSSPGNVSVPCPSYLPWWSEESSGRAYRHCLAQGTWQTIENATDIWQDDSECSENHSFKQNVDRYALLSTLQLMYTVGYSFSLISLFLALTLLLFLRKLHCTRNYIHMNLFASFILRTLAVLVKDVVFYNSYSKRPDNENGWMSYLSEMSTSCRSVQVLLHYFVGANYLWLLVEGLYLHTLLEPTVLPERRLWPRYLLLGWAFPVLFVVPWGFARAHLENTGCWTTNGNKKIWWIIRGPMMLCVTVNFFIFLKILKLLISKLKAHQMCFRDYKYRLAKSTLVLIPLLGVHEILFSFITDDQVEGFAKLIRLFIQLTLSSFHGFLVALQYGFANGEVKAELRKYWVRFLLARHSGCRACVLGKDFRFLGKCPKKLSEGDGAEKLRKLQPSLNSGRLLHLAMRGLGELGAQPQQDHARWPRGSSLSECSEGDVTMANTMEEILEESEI
Procedure: The screening was done using BHK21 cells transiently transfected with GLP-2 receptor and the CRE-luciferase reporter gene construct. Dose-response curves and EC50 values were determined using seven concentrations from 10 fM to 10 nM and triplicate points for each concentration. Control peptide was used on all test plates. BHK-21 cells are seeded in 10 cm TC-Petri dishes and grown to 70-80% confluency. Subsequently, medium is changed to serum-free transfection medium. DNA (7.5 μg hGLP-2 receptor vector and 7.5 μg CRE-luciferase vector) and Lipofectamine 2000 are diluted in OptiMEM, combined, and added to the cells after 20-30 min. Cells are incubated in the incubator at 37° C., 5% CO2 for 4 hr, trypsinized, and reseeded at 35,000 cells per well in 96-well plates. Cells are incubated overnight in full growth medium in order to allow expression of the transgenes. […] Baseline activity is controled with stimulation buffer alone. These solutions are pre-warmed to 37° C. for 30 min. Cells are rinsed with pre-warmed (37° C.) stimulation buffer, and incubated with 100 μl of the pre-warmed peptide dilutions and control for 5 hr at 37° C., 5% CO2. The LucLite enzyme substrate/lysis buffer is prepared shortly before the end of the incubation. 100 μl LucLite substrate are added to each well, and light emission is counted on a suitable counter (e.g. Wallac VictorII). EC50 values are derived from the raw data by fitting with a four parameter logistic equation (Microcal Origin 5.0 or GraphPad 4).

male C57BL mice [2] = assay: In vivo stimulation of stomach growth, 200 nmol/kg (Example 12); details: for Sensitivity index Stomach/Co: ratio Stomach-BW / Colon-BW; for Stomach-BW, compared to 1559 in %: stomach weight relative to body weight, relative to ZP1559
How it was run: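 Mice (n=6-10/group) received 200 nmol/kg s.c. once daily for 3 days, with PBS pH 7.4 vehicle and an equimolar GLP-2 comparator. Stomach/colon sensitivity index relative to GLP-2 was calculated, with ≥1.05 deemed stomach-selective.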

male C57BL mice [3] = assay: In vivo stimulation of intestinal growth, 200 nmol/kg (Example 11); details: for Colon-BW, compared to 1559 in %: colon weight relative to body weight; for Colon-BW, compared to 1559 in % / SI-BW, compared to 1559 in %: relative to ZP1559; for Sensitivity index Si/Co: ratio SI-BW / Colon-BW; for SI-BW, compared to 1559 in %: small intestine weight relative to body weight
How it was run: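 Mice (n=6-10 per group) dosed s.c. at 200 nmol/kg once daily for three days; controls received equimolar [[MUT]]GLP-2 or PBS pH 7.4 vehicle.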

[4] = DPP IV degradation and renal clearance; Tavares et al. 2000; cited from earlier work
[5] = BHK21 cells transiently transfected with GLP-2 receptor and CRE-luciferase, 10 fM to 10 nM, read-out: pEC50 (converted)

EC50 (hGLP-2 receptor; [5]) [pM] | EC50 (hGLP-2 receptor; agonism on GLP-2 receptor in BHK-21 cells, read-out: IC 50 (FIG. 5)) [pM] | Substance | Colon-BW, compared to 1559 in % (male C57BL mice [1]) [%] | Preferential stimulation of epithelial growth in the small intestine (summary) (male C57BL mice [1]) | SI-BW, compared to 1559 in % (male C57BL mice [1]) [%] | Sto-BW, compared to 1559 in % (male C57BL mice [1]) [%] | Small intestine-colon sensitivity index (male C57BL mice [1]) | Sensitivity index Si/Colon (male C57BL mice [1]) | Sensitivity index Stomach/Co (male C57BL mice [1]) | Colon (male C57BL mice [1]) [%] | SI (% vs. [Gly2]GLP-2 (male C57BL mice [1]) [%] | Sensitivity index Stomach/Co (male C57BL mice [2]) | Stomach-BW, compared to 1559 in % (male C57BL mice [2]) [%] | Colon-BW, compared to 1559 in % (male C57BL mice [3]) [%] | Sensitivity index Si/Co (male C57BL mice [3]) | SI-BW, compared to 1559 in % (male C57BL mice [3]) [%] | EC50 (hGLP-2 receptor) [pM] | Organ selectivity (FIG. 8, unselective compounds) (male C57BL mice [1]) | half life [4]
3.16 | 3.55 | H-HGEGSFSDELATILEALAAADFIAWLIATKITD-NH2 [ZP2264] | 109.5 | preferentially stimulating epithelial growth in the small intestine | 125.7 | 87 | 1.15 ± 0.03 | 1.15 | 0.79 | 109 ± 3 | 126 ± 3 | 0.79 | 87 | 109.5 | 1.15 | 125.7 | – | – | –
– | – | H-HGEGSFSDELATILEALAASDFISWLISTKITD-NH2 [ZP2268] | 112.5 | preferentially stimulating epithelial growth in the small intestine | 123.6 | 87.4 | 1.10 ± 0.03 | 1.10 | 0.78 | 112 ± 4 | 124 ± 3 | 0.78 | 87.4 | 112.5 | 1.10 | 123.6 | 6.17 | – | –
5.37 | – | H-HGEGSFSDELATILESLAAADFISWLIATKITD-NH2 [ZP2272] | 104.7 | preferentially stimulating epithelial growth in the small intestine | 118.1 | 96 | – | 1.13 | 0.92 | 105 ± 6 | 118 ± 2 | 0.92 | 96 | 104.7 | 1.13 | 118.1 | – | – | –
13.5 | – | H-HGEGSFSDELSTILESLAAADFIAWLIATKITD-NH2 [ZP2267] | 109.4 | – | 108.5 | 85.9 | – | 0.99 | 0.79 | 109 ± 4 | 108 ± 2 | – | – | – | – | – | – | unselective for the small intestine, colon or stomach | –
– | – | H-His-Ala-Asp-Gly-Ser-Phe-Ser-Asp-Glu-Met-Asn-Thr-Ile-Leu-Asp-Asn-Leu-Ala-Ala-Arg-Asp-Phe-Ile-Asn-Trp-Leu-Ile-Gln-Thr-Lys-Ile-Thr-Asp-OH [GLP-2(1-33)] | – | – | – | – | – | – | – | – | – | – | – | – | – | – | – | – | about 7 minutes
